Read-outs that look alike come from different tables or passages of the source.

The test system of assay [1] is GM-CSF induced STAT5 phosphorylation mediated by the JAK2/JAK2 homdimeric complex. Description: GM-CSF Induced pSTAT5 in Human PBMC. The following applies: GM-CSF 5 ng/mL for 20 minutes, pSTAT5.
Excerpt: Human PBMC are isolated from buffy coat and are stored frozen for assays as needed.
Assay [2] concerns IL-12 induced STAT4 phophorylation mediated by Tyk2/JAK2 (heterodimeric complex). Description: IL-12 Induced pSTAT4 in Human PBMC. The format is cell-based. The settings on record: 1.7 ng/mL IL-12. An excerpt:
The IL-12 Induced pSTAT4 assay evaluates the inhibition of IL-12 induced STAT4 phophorylation mediated by Tyk2/JAK2 (heterodimeric complex).

[3] abbreviates: Homo sapiens, PBMC, 20 min, read-out: PBMC_GMCSF_pSTAT5 IC50, human PBMC.
Where [4] appears, read: read-out: PBMC_GMCSF_pSTAT5 IC50, human PBMC.

As to `CNc1cc(-c2cn(C3CC3)c3ncccc23)nc2c(C(=O)N[C@H]3CC[C@@H]3OC)cnn12` (stereo in doubt) [I-1067, 5-(1-cyclopropyl-1H-pyrrolo[2,3-b]pyridin-3-yl)-N-(2-methoxycyclobutyl)-7-(methylamino)pyrazolo[1,5-a]pyrimidine-3-carboxamide], in assay [1] (setting [3]), the IC50 is above 12.5 µM.
In assay [2], `CNc1cc(Nc2cccn(-c3ccc(F)cc3)c2=O)nc2c(C(N)=O)cnn12` [I-9] displayed an IC50 of 0.1 to 0.5 µM.
Still for that read-out and setting: in the case of `CNc1cc(Nc2cccn([C@@H]3CCCOC3)c2=O)nc2c(C(=O)NC3CC3)cnn12` [I-351] it was below 0.1 µM; in that of `CNc1cc(Nc2cccn([C@H]3CC[C@@](C)(O)CC3)c2=O)nc2c(C(=O)N[C@H]3C[C@H]3F)cnn12` [I-370], below 0.1 µM; in that of `CNc1cc(Nc2cccn([C@H]3CC[C@](C)(O)CC3)c2=O)nc2c(C(=O)NC3CC3)cnn12` [I-371], 0.1 to 0.5 µM.
`CNc1cc(Nc2cccn([C@H]3CC[C@](C)(O)CC3)c2=O)nc2c(C(=O)N[C@H]3C[C@H]3F)cnn12` [I-372] yielded an IC50 in assay [2] below 0.1 µM.
In the case of `[2H]C([2H])([2H])Oc1ncccc1Nc1cc(NC)n2ncc(C(=O)NC3CC4(COC4)C3)c2n1` [I-417, 5-((2-(methoxy-d3)pyridin-3-yl)amino)-7-(methylamino)-N-(2-oxaspiro[3.3]heptan-6-yl)pyrazolo[1,5-a]pyrimidine-3-carboxamide], the IC50 in assay [1] (setting [3]) was above 50 µM.
Still for that read-out and setting: in the case of `CNc1cc(Nc2cccn([C@H]3CCCC[C@H]3O)c2=O)nc2c(C(=O)NC3CC3)cnn12` [I-878] it was above 50 µM.
Take `CNc1cc(Nc2cc(Cl)cn(-c3cnn(C)c3F)c2=O)nc2c(C(=O)NC3CC3)cnn12` [I-955]: the IC50 in assay [1] (setting [3]) is above 12.5 µM.
For the molecule `CNc1cc(Nc2cccn([C@@H]3CCC[C@@H](OC)C3)c2=O)nc2c(C(=O)NC3CC3)cnn12` [I-957], the IC50 in assay [1] (setting [3]) is above 50 µM.
As to `CNc1cc(Nc2cccn([C@H]3CCC[C@H](OC)C3)c2=O)nc2c(C(=O)NCC(C)(C)CO)cnn12` [I-958], the IC50 in assay [1] (setting [3]) was above 50 µM.
For the molecule `CNc1cc(Nc2cccn([C@H]3CC[C@](C)(OC)CC3)c2=O)nc2c(C(=O)N[C@@H]3CC[C@H]3O)cnn12` [I-962], the IC50 in assay [1] (setting [4]) is above 50 µM.
Regarding `CNc1cc(Nc2cccn([C@H]3CCC[C@H]3O)c2=O)nc2c(C(=O)NC3CC3)cnn12` [I-963], the IC50 in assay [1] (setting [3]) was above 50 µM.
As to `CNc1cc(Nc2cccn([C@H]3CCC[C@H]3O)c2=O)nc2c(C(=O)N[C@@H]3C[C@@H]3F)cnn12` [I-965], the IC50 in assay [1] (setting [3]) was above 50 µM.
As for `CNc1cc(Nc2cccc(N3CCCC3=O)n2)nc2c(C(=O)N[C@H]3CC[C@H]3O)cnn12` [I-969], in assay [1] (setting [3]), the concentration for half-maximal inhibition (IC50) was above 50 µM.
Still for that read-out and setting: in the case of `CNc1cc(Nc2cccn(-c3ccccn3)c2=O)nc2c(C(=O)N[C@H]3CC[C@@H]3O)cnn12` [I-971] it was above 50 µM; in that of `CNc1cc(Nc2cccn([C@H]3CCC[C@@H](OC)C3)c2=O)nc2c(C(=O)N[C@@H]3CC[C@H]3O)cnn12` [I-993], above 50 µM; in that of `CNc1cc(Nc2cccn([C@H]3CCC[C@@H](OC)C3)c2=O)nc2c(C(=O)N[C@H]3CC[C@@H]3OC)cnn12` [I-996], above 50 µM.
The same measure, in the same setting: with `CNc1cc(Nc2cccn([C@@H]3CC[C@H]3O)c2=O)nc2c(C(=O)N[C@@H]3C[C@@H]3F)cnn12` [I-999] the figure was above 50 µM.
The same measure, in the same setting: with `CNc1cc(Nc2cccn(-c3cccc(F)c3)c2=O)nc2c(C(=O)N[C@H]3CC[C@H]3O)cnn12` [I-1004] the figure was above 12.5 µM; with `CNc1cc(Nc2cccn([C@H]3CCC[C@H](OC)C3)c2=O)nc2c(C(=O)NCC3(CO)CC3)cnn12` [I-1010], above 50 µM.
Take `CNc1cc(-c2cn(C(C)C)c3ncc(F)cc23)nc2c(C(=O)N[C@H]3CC[C@H]3O)cnn12` [I-1013, 5-(5-fluoro-1-isopropyl-1-pyrrolo[2,3-b]pyridin-3-yl)-N-(2-hydroxycyclobutyl)-7-(methylamino)pyrazolo[1,5-a]pyrimidine-3-carboxamide]: in assay [1] (setting [3]), the IC50 is above 12.5 µM.
Same read-out and setting: in the case of `CNc1cc(Nc2cccn(-c3cnco3)c2=O)nc2c(C(=O)N[C@H]3CC[C@H]3O)cnn12` [I-1017] it was above 12.5 µM.
As for `CNc1cc(Nc2cccn([C@@H]3CC[C@H]3OC)c2=O)nc2c(C(=O)N[C@@H]3C[C@@H]3F)cnn12` [I-1022], the IC50 in assay [1] (setting [3]) is above 12.5 µM.
On the same count and under the same terms, with `CNc1cc(Nc2cccn([C@H]3CCC[C@H](OC)C3)c2=O)nc2c(C(=O)NC3CC3)cnn12` [I-1025] the figure was above 50 µM; with `CNc1cc(Nc2cccn([C@@H]3CCC[C@@H](O)C3)c2=O)nc2c(C(=O)N[C@@H]3C[C@@H]3F)cnn12` [I-1029], above 2.5 µM.
`CNc1cc(Nc2cccn(-c3ccccc3F)c2=O)nc2c(C(=O)N[C@H]3CC[C@H]3O)cnn12` [I-1035]: in assay [1] (setting [3]), the IC50 is above 2.5 µM.
As to `CNc1cc(Nc2cccn(-c3ccccc3F)c2=O)nc2c(C(=O)N[C@H]3CC[C@@H]3O)cnn12` [I-1038], the IC50 in assay [1] (setting [3]) was above 50 µM.
`CNc1cc(Nc2cccn([C@H]3CCC[C@H](OC)C3)c2=O)nc2c(C(=O)N[C@@H]3C[C@@H]3F)cnn12` [I-1042]: the IC50 in assay [1] (setting [3]) is above 2.5 µM.
With `CNc1cc(-c2cn(C3CCOCC3)c3ncccc23)nc2c(C(=O)NC3CCC3O)cnn12` (centres unmarked) [I-1048, N-(2-hydroxycyclobutyl)-7-(methylamino)-5-(1-(tetrahydro-2H-pyran-4-yl)-1H-pyrrolo[2,3-b]pyridin-3-yl)pyrazolo[1,5-a]pyrimidine-3-carboxamide], the IC50 in assay [1] (setting [3]) was above 2.5 µM.
Regarding `CNc1cc(Nc2cccn([C@H]3CCN(CCF)C3)c2=O)nc2c(C(=O)N[C@H]3CC[C@@H]3OC)cnn12` [I-1050, 5-((1-((S)-1-(2-fluoroethyl)pyrrolidin-3-yl)-2-oxo-1,2-dihydropyridin-3-yl)amino)-N-((1 S,2S)-2-methoxycyclobutyl)-7-(methylamino)pyrazolo[1,5-a]pyrimidine-3-carboxamide], the IC50 in assay [1] (setting [3]) was above 50 µM.
For `CNc1cc(Nc2cccc3ocnc23)nc2c(C(=O)NC3CCC3OC)cnn12` (centres unmarked) [I-1051, 5-(benzo[d]oxazol-4-ylamino)-N-(2-methoxycyclobutyl)-7-(methylamino) pyrazolo[1,5-a]pyrimidine-3-carboxamide], the IC50 in assay [1] (setting [3]) was above 50 µM.
The same measure, in the same setting: with `CNc1cc(Nc2cccn3ccnc23)nc2c(C(=O)N[C@H]3CC[C@@H]3OC)cnn12` [I-1052] the figure was above 50 µM; with `CNc1cc(-c2cn(C(C)C)c3ncc(F)cc23)nc2c(C(=O)N[C@H]3CC[C@@H]3OC)cnn12` [I-1053, 5-(5-fluoro-1-isopropyl-1H-pyrrolo[2,3-b]pyridin-3-yl)-N-((1S,2S)-2-methoxycyclobutyl)-7-(methylamino)pyrazolo[1,5-a]pyrimidine-3-carboxamide], above 12.5 µM; with `CNc1cc(Nc2cccn([C@H]3CCCC[C@H]3O)c2=O)nc2c(C(=O)N[C@@H]3CC[C@H]3OC)cnn12` [I-1057], above 50 µM.
With `CNc1cc(Nc2cccn([C@H]3CCCN(CCF)C3)c2=O)nc2c(C(=O)N[C@@H]3CC[C@H]3OC)cnn12` [I-1059], in assay [1] (setting [3]), the IC50 is above 50 µM.
Take `CNc1cc(Nc2cccn([C@H]3CCC[C@H](O)C3)c2=O)nc2c(C(=O)N[C@H]3CC[C@@H]3OC)cnn12` [I-1063]: the IC50 in assay [1] (setting [3]) is above 50 µM.
Still for that read-out and setting: with `CNc1cc(Nc2cccn(-c3cnn(C)c3F)c2=O)nc2c(C(=O)N[C@H]3CC[C@@H]3OC)cnn12` [I-1066] the figure was above 50 µM; with `CNc1cc(Nc2cccn(-c3ncc(C)s3)c2=O)nc2c(C(=O)N[C@@H]3CC[C@H]3O)cnn12` [I-1070], above 12.5 µM.
As for `CNc1cc(Nc2cccn(-c3ncc(C)s3)c2=O)nc2c(C(=O)N[C@@H]3CC[C@@H]3O)cnn12` [I-1073], the IC50 in assay [1] (setting [4]) is above 50 µM.
In the case of `CNc1cc(Nc2cccn([C@@H]3CCC[C@H](OC)C3)c2=O)nc2c(C(=O)N[C@@H]3CC[C@H]3OC)cnn12` [I-1082], the IC50 in assay [1] (setting [4]) is above 50 µM.
`CNc1cc(Nc2cccn([C@H]3[C@@H]4COC[C@@H]43)c2=O)nc2c(C(=O)N[C@H]3CC[C@@H]3OC)cnn12` [I-1088]: the IC50 in assay [1] (setting [3]) was above 50 µM.
For `CNc1cc(Nc2cccn([C@@H]3CC[C@H]3O)c2=O)nc2c(C(=O)N[C@H]3CC[C@@H]3OC)cnn12` [I-1093], the IC50 in assay [1] (setting [3]) was above 50 µM.
For the molecule `CNc1cc(Nc2cccn([C@H]3CC[C@@H]3O)c2=O)nc2c(C(=O)N[C@H]3CC[C@@H]3OC)cnn12` [I-1094], in assay [1] (setting [3]), the IC50 is above 50 µM.
The same measure, in the same setting: in the case of `CNc1cc(Nc2cccn([C@@H]3CCCN(CCF)C3)c2=O)nc2c(C(=O)N[C@@H]3CC[C@H]3OC)cnn12` [I-1095] it was above 50 µM; in that of `CNc1cc(Nc2cccn([C@@H]3CCN(CCF)C3)c2=O)nc2c(C(=O)NC3CCC3OC)cnn12` (stereo partly drawn) [I-1096, 5-((1-((R)—1-(2-fluoroethyl)pyrrolidin-3-yl)-2-oxo-1,2-dihydropyridin-3-yl)amino)-N-(2-methoxycyclobutyl)-7-(methylamino)pyrazolo[1,5-a]pyrimidine-3-carboxamide], above 50 µM; in that of `CNc1cc(Nc2cccn([C@H]3CCCC[C@H]3OC)c2=O)nc2c(C(=O)N[C@H]3CC[C@@H]3OC)cnn12` [I-1097], above 50 µM.
For `CNc1cc(Nc2cccn([C@H]3CCC[C@H](OC)C3)c2=O)nc2c(C(=O)N[C@H]3CC[C@@H]3OC)cnn12` [I-1098], the IC50 in assay [1] (setting [3]) is above 50 µM.
In the case of `CNc1cc(Nc2cccn([C@@H]3CCC[C@@H](OC)C3)c2=O)nc2c(C(=O)N[C@H]3CC[C@@H]3OC)cnn12` [I-1099], the IC50 in assay [1] (setting [3]) is above 50 µM.
Consider `CNc1cc(Nc2cccn([C@H]3CCC[C@H]3O)c2=O)nc2c(C(=O)N[C@H]3CC[C@@H]3OC)cnn12` [I-1101], for which, in assay [1] (setting [3]), the IC50 was above 50 µM.
As to `CNc1cc(Nc2cccn3cnnc23)nc2c(C(=O)N[C@H]3CC[C@@H]3OC)cnn12` [I-1102], in assay [1] (setting [3]), the IC50 was above 2.5 µM.
In the case of `CNc1cc(Nc2cccn([C@H]3CC[C@](C)(OC)CC3)c2=O)nc2c(C(=O)N[C@H]3CC[C@@H]3OC)cnn12` [I-1105], in assay [1] (setting [3]), the IC50 was above 50 µM.
With `CNc1cc(Nc2cccn([C@H]3CC[C@](C)(OC)CC3)c2=O)nc2c(C(=O)N[C@@H]3CC[C@H]3O)cnn12` [I-1107], the IC50 in assay [1] (setting [4]) was above 2.5 µM.
